Assay results reported in paper doi:10.1101/2023.03.24.534094v2 (biorxiv, 2023).
Where two headings read alike, the source gives them in different places. Blank lines part the entries; values can stand above or below the molecule they belong to.

Columns and labels:
[1] = target: CK1d (Homo sapiens, UniProt P48730); assay: biochemical
[2] = target: EphA7 (Homo sapiens, UniProt Q15375); assay: biochemical
[3] = target: SRPK1 (Homo sapiens, UniProt Q96SB4); assay: biochemical
[4] = target: T1, NEK2 (Homo sapiens, UniProt P51955); assay: biochemical
T1 sequence (P51955 1-445): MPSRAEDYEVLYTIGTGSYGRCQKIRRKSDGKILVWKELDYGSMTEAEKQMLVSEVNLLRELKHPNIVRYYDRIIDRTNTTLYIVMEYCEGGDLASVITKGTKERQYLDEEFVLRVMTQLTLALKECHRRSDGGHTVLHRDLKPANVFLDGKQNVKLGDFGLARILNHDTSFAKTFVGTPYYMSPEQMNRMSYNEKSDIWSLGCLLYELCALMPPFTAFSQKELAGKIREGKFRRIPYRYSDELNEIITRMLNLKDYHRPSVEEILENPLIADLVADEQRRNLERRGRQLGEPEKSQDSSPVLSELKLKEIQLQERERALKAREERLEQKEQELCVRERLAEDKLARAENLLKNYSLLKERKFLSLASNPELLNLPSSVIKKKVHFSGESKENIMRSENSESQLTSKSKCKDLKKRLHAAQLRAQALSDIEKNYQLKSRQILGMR

[5] = target: GPRK5 (Homo sapiens, UniProt P34947); assay: biochemical
Sequence of GPRK5 (P34947 whole entry): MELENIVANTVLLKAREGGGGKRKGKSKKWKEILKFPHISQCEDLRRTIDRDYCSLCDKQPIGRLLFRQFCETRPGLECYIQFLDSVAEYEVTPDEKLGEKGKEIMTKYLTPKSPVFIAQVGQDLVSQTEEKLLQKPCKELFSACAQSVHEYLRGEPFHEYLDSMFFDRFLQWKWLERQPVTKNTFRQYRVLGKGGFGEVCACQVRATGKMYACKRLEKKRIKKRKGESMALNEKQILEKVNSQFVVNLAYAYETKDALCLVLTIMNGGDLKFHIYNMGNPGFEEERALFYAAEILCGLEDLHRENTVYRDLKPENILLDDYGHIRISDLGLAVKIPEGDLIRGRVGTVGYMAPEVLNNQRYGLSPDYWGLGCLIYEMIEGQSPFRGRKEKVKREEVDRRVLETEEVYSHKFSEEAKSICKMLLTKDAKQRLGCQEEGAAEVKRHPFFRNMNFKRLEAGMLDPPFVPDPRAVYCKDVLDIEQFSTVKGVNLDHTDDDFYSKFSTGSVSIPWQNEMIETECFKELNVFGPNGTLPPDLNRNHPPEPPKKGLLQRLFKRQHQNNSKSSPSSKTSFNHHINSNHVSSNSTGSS

[6] = target: DAPK3 (Homo sapiens, UniProt O43293); assay: biochemical
Sequence of DAPK3 (O43293 whole entry): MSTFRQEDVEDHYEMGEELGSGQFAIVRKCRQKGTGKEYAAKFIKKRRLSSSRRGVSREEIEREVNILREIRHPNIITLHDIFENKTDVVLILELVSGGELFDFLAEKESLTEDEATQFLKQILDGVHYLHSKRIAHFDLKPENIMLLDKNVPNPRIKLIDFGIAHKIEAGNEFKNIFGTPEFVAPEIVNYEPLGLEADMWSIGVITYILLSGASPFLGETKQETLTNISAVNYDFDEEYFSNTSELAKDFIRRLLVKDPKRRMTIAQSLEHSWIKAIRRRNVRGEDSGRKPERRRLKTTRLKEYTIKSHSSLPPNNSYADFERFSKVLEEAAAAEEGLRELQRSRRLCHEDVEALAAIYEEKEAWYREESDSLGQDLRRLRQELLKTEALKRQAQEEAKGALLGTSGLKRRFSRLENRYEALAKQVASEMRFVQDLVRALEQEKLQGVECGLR

[7] = target: PAK1 (Homo sapiens, UniProt Q13153); assay: biochemical
Sequence of PAK1 (Q13153 whole entry): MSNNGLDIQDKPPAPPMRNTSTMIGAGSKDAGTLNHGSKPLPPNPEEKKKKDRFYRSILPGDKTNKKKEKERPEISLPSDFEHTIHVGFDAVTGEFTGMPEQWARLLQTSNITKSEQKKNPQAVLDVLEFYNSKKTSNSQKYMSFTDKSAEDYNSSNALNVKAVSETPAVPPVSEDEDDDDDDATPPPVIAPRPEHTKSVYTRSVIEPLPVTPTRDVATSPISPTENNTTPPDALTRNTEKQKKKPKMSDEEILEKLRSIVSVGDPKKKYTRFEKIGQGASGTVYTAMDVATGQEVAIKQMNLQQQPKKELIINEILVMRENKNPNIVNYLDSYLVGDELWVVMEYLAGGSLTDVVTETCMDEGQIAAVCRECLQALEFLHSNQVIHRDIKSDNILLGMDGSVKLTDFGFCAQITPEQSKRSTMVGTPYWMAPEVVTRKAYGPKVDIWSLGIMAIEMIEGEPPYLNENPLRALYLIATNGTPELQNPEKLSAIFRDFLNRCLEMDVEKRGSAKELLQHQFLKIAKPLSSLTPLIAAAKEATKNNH

[8] = target: T2, EpHA1 (Homo sapiens, UniProt P21709); assay: NanoBRET target engagement; format: cell-based
T2 sequence (P21709 26-976): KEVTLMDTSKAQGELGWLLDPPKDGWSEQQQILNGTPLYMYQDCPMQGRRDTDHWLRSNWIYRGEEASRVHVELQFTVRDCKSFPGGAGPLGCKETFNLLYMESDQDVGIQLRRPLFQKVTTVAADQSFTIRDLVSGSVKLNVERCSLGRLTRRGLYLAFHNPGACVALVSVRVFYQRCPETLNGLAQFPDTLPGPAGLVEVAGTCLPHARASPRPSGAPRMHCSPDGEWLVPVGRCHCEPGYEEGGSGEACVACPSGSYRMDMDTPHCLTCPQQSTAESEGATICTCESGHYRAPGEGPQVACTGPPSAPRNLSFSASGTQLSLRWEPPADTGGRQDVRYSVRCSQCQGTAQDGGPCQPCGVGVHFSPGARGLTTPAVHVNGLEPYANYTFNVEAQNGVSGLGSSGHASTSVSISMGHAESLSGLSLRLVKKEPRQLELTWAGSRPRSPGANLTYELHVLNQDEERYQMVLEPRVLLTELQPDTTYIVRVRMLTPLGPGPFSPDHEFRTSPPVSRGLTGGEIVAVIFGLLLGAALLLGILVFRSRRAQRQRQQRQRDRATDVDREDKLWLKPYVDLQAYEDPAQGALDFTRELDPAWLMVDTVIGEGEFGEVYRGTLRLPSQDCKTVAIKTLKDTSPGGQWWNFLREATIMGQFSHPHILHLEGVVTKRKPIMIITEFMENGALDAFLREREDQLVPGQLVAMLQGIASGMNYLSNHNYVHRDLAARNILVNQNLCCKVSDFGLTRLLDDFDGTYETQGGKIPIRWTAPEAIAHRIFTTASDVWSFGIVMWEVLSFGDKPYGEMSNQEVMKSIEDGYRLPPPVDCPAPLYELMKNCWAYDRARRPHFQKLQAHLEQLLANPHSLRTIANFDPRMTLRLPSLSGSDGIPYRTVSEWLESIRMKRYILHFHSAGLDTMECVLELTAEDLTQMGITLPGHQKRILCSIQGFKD

[9] = target: T3, EpHB1 (Homo sapiens, UniProt P54762); assay: NanoBRET target engagement; format: cell-based
T3 sequence (P54762 18-984): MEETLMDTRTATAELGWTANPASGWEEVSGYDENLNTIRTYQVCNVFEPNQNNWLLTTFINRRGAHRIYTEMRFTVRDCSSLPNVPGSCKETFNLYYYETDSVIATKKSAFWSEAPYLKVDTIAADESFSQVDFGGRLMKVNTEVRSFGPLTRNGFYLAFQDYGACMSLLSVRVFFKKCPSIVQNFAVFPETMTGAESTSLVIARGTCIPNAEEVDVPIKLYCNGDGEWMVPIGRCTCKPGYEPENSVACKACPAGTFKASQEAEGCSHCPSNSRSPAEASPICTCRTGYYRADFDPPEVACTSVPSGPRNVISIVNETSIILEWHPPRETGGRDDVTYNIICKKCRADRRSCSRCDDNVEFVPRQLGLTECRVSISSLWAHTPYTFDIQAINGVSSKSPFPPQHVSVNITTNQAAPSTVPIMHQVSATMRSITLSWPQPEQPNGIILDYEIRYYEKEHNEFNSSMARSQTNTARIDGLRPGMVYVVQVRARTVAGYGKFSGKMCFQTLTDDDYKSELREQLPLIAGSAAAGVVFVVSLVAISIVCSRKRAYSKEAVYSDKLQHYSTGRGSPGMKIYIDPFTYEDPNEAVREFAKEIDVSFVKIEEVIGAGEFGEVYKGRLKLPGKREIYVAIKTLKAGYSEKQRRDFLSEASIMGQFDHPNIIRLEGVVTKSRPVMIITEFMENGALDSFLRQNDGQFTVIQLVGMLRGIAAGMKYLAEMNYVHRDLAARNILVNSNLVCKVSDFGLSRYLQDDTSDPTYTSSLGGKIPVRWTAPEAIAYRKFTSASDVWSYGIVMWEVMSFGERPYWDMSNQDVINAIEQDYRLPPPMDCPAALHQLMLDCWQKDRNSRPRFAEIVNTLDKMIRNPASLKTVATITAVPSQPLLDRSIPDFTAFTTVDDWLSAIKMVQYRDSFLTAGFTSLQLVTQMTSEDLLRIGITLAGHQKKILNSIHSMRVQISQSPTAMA

[10] = intact mode, HEK293T, 37 °C, 2 h, tracer displacement

Sequence of SRPK1 (Q96SB4 whole entry): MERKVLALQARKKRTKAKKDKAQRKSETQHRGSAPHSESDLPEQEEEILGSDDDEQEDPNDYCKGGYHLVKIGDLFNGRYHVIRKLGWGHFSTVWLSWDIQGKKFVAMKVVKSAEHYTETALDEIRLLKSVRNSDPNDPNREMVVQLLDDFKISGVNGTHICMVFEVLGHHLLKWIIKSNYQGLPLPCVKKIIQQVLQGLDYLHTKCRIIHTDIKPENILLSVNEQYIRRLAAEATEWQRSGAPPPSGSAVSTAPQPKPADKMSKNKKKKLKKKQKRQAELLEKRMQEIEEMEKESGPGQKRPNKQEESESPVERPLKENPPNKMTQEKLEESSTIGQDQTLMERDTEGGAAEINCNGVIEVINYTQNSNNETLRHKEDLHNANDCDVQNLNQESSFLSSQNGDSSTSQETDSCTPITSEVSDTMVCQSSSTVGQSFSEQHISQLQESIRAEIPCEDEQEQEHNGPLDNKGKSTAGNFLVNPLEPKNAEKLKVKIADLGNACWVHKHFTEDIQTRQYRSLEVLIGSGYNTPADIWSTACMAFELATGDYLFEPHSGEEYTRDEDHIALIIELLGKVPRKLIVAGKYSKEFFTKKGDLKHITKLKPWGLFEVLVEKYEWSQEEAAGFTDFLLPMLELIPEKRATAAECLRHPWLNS
Sequence of EphA7 (Q15375 whole entry): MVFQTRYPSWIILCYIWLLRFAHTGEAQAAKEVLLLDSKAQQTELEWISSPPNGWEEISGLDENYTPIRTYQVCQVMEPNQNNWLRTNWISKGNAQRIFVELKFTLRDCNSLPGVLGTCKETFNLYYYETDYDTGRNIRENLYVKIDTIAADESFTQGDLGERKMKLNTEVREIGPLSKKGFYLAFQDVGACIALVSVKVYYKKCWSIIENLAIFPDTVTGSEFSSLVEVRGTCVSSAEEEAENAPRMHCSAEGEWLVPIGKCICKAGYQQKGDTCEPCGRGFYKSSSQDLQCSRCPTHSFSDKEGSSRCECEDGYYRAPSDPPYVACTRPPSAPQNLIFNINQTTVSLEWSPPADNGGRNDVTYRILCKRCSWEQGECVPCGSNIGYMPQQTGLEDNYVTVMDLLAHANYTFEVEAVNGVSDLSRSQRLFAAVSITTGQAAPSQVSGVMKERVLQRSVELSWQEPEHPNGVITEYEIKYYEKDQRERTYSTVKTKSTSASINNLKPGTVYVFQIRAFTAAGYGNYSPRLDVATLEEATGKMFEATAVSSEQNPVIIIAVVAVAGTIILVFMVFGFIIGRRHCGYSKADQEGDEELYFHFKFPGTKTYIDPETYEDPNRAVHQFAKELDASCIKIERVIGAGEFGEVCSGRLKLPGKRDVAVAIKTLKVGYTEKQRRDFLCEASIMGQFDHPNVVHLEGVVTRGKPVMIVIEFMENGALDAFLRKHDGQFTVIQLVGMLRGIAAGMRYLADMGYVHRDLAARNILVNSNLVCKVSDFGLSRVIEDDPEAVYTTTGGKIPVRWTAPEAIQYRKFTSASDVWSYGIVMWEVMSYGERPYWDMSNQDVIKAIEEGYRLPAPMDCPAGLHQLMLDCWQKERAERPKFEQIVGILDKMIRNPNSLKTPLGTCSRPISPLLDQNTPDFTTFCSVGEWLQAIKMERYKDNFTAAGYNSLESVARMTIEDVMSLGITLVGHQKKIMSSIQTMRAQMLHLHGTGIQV
Sequence of CK1d (P48730 whole entry): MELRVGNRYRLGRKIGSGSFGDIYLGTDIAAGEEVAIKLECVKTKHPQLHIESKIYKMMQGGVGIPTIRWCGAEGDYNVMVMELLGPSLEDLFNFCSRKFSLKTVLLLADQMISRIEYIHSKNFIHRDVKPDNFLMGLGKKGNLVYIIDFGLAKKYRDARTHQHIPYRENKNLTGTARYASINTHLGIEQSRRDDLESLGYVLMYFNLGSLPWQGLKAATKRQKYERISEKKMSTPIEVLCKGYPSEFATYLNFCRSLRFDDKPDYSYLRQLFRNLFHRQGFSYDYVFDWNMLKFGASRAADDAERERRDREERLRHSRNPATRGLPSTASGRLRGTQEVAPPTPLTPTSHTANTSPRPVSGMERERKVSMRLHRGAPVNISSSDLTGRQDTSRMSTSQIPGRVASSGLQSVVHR

ΔTm at 10 µM ([1]; read-out: dTm 12): 0.6 °C | ΔTm at 10 µM ([2]; read-out: dTm 12): 2.3 °C | ΔTm at 10 µM ([3]; read-out: dTm 12): 0 °C | ΔTm at 10 µM ([4]; read-out: dTm 12): 7.2 °C | ΔTm at 10 µM ([5]; read-out: dTm 12): -0.4 °C | ΔTm at 10 µM ([6]; read-out: dTm 12): 0.3 °C
Structure (SMILES): CNc1ncc2cc(-c3cc(F)c(-c4cccc(C)n4)cc3F)c(=O)n(CCCCN)c2n1 [compound 12, 8-(4-Aminobutyl)-6-(2,5-difluoro-4-(6-methylpyridin-2-yl)phenyl)-2-(methylamino)pyrido[2,3-d]pyrimidin-7(8H)-one]

ΔTm at 10 µM ([1]; read-out: dTm 11): 0 °C | ΔTm at 10 µM ([2]; read-out: dTm 11): 0.6 °C | ΔTm at 10 µM ([3]; read-out: dTm 11): 0.2 °C | ΔTm at 10 µM ([4]; read-out: dTm 11): 1.7 °C | ΔTm at 10 µM ([5]; read-out: dTm 11): 0.7 °C | ΔTm at 10 µM ([6]; read-out: dTm 11): -0.2 °C
Structure (SMILES): CNc1ncc2cc(-c3cc(Br)ccc3Br)c(=O)n(CCCCN)c2n1 [compound 11, 8-(4-Aminobutyl)-6-(2,5-dibromophenyl)-2-(methylamino)pyrido[2,3-d]pyrimidin-7(8H)-one]

ΔTm at 10 µM ([1]; read-out: dTm 9): 0 °C | ΔTm at 10 µM ([2]; read-out: dTm 9): 0.6 °C | ΔTm at 10 µM ([3]; read-out: dTm 9): 0.1 °C | ΔTm at 10 µM ([4]; read-out: dTm 9): 1.3 °C | ΔTm at 10 µM ([5]; read-out: dTm 9): 0.3 °C | ΔTm at 10 µM ([6]; read-out: dTm 9): -0.1 °C
Structure (SMILES): CNc1ncc2cc(-c3cc(C(F)(F)F)ccc3Cl)c(=O)n(CCCCN)c2n1 [compound 9, 8-(4-Aminobutyl)-6-(2-chloro-5-(trifluoromethyl)phenyl)-2-(methylamino)pyrido[2,3-d]pyrimidin-7(8H)-one]

ΔTm at 10 µM ([7]; read-out: ∆Tm 7): 0.6 °C
Structure (SMILES): CNc1ncc2cc(-c3cc(Br)ccc3Cl)c(=O)n(C[C@H]3OC[C@H](N)CO3)c2n1 [compound 7, 8-(((2r,5r)-5-Amino-1,3-dioxan-2-yl)methyl)-6-(5-bromo-2-chlorophenyl)-2-(methylamino)pyrido[2,3-d]pyrimidin-7(8H)-one]

ΔTm at 10 µM ([1]; read-out: dTm 10): 0 °C | ΔTm at 10 µM ([2]; read-out: dTm 10): 0.5 °C | ΔTm at 10 µM ([3]; read-out: dTm 10): 0.2 °C | ΔTm at 10 µM ([4]; read-out: dTm 10): 2.1 °C | ΔTm at 10 µM ([5]; read-out: dTm 10): 0.6 °C | ΔTm at 10 µM ([6]; read-out: dTm 10): 0.1 °C
Structure (SMILES): CNc1ncc2cc(-c3cc(Cl)ccc3Br)c(=O)n(CCCCN)c2n1 [compound 10, 8-(4-Aminobutyl)-6-(2-bromo-5-chlorophenyl)-2-(methylamino)pyrido[2,3-d]pyrimidin-7(8H)-one]

ΔTm at 10 µM ([1]; read-out: dTm 8): 0 °C | ΔTm at 10 µM ([2]; read-out: dTm 8): 0.5 °C | ΔTm at 10 µM ([3]; read-out: dTm 8): 0.3 °C | ΔTm at 10 µM ([4]; read-out: dTm 8): 1.9 °C | ΔTm at 10 µM ([5]; read-out: dTm 8): 0.6 °C | ΔTm at 10 µM ([6]; read-out: dTm 8): -0.1 °C | IC50 [8]: 82 ± 3 nM | IC50 [9]: 302 ± 26 nM
Structure (SMILES): CNc1ncc2cc(-c3cc(Cl)ccc3Cl)c(=O)n(CCCCN)c2n1 [compound 8, 8-(4-Aminobutyl)-6-(2,5-dichlorophenyl)-2-(methylamino)pyrido[2,3-d]pyrimidin-7(8H)-one]

∆Tm G-5555 (2) ([7]; 10 µM, binder): 6.4 degC
Structure (SMILES): CNc1ncc2cc(-c3ccc(-c4cccc(C)n4)cc3Cl)c(=O)n(CC3OCC(N)CO3)c2n1 (stereo not drawn) [compound 2, G-5555]

IC50 [8, 10]: 145 ± 17 nM | IC50 [9, 10]: 632 ± 10 nM
Structure (SMILES): CNc1ncc2cc(-c3cc(F)ccc3F)c(=O)n(CCCCN)c2n1 [compound 5, 8-(4-Aminobutyl)-6-(2,5-difluorophenyl)-2-(methylamino)pyrido[2,3-d]pyrimidin-7(8H)-one]

IC50 [8]: 12 ± 2 nM | IC50 [9]: 78 ± 2 nM | ΔTm at 10 µM ([7]; read-out: ∆Tm MR21 (4)): 1.6 °C
Structure (SMILES): CNc1ncc2cc(-c3ccccc3Cl)c(=O)n(CCCCN)c2n1 [compound 4, 8-(4-Aminobutyl)-6-(2-chlorophenyl)-2-(methylamino)pyrido[2,3-d]pyrimidin-7(8H)-one]
